Laboratory results as given in patent US20070219191A1, “3-Pyridinium Methyl Cephem Compound” (priority 2004, published 2007).
Values after ≈ are worked out from the molar mass of the structure shown.

What was measured:
Experiment in all cases: Antibacterial activity, MIC by agar plate dilution method
Assay type in all cases: cell-based
H. influenzae ATCC49766 = settings: Haemophilus influenzae, 1000 cfu/spot
Description: (§1) Antibacterial activity of Compound (I) was examined.
(§2) Minimal inhibitory concentration (MIC: μg/ml) was determined by an agar plate dilution method using a sensitive disc medium as a test medium with an innoculation amount of 1000 cfu/spot in conformance with the standard method established by Japanese Society of Chemotherapy.

S. pneumoniae Type I = settings: Streptococcus pneumoniae, 1000 cfu/spot
Description: as §1, §2

P. aeruginosa SR24 = settings: Pseudomonas aeruginosa, 1000 cfu/spot
Description: as §1, §2

E. coli NIHJ JC-2 = settings: Escherichia coli, NIHJJC2, 1000 cfu/spot
Description: as §1, §2

MIC (H. influenzae ATCC49766) [µg/mL]	MIC (S. pneumoniae Type I) [µg/mL]	MIC (P. aeruginosa SR24) [µg/mL]	MIC (E. coli NIHJ JC-2) [µg/mL]	Structure (SMILES)
0.063 (≈ 0.0997 µM)	0.125 (≈ 0.198 µM)	0.5 (≈ 0.792 µM)	0.125 (≈ 0.198 µM)	CC(C)(O/N=C(\C(=O)NC1C(=O)N2C(C(=O)[O-])=C(C[n+]3ccc(NC4CCNC4)cc3)CSC12)c1nsc(N)n1)C(=O)O (stereo not shown) [Example 5]
0.016 (≈ 0.026 µM)	0.125 (≈ 0.203 µM)	0.5 (≈ 0.812 µM)	0.25 (≈ 0.406 µM)	Cc1c(N)[nH]c2ccc[n+](CC3=C(C(=O)[O-])N4C(=O)C(NC(=O)/C(=N\OC(C)(C)C(=O)O)c5nsc(N)n5)C4SC3)c12 (stereo not shown) [Example 10]
0.032 (≈ 0.0467 µM)	0.25 (≈ 0.365 µM)	0.25 (≈ 0.365 µM)	0.125 (≈ 0.182 µM)	CC(C)(O/N=C(\C(=O)NC1C(=O)N2C(C(=O)[O-])=C(C[n+]3cccc4c3nc(N)n4C3CCNCC3)CSC12)c1nsc(N)n1)C(=O)O (stereo not shown) [Example 12]
0.032 (≈ 0.0475 µM)	0.125 (≈ 0.186 µM)	0.5 (≈ 0.742 µM)	0.125 (≈ 0.186 µM)	C[C@H](N)CCn1c(N)nc2c1ccc[n+]2CC1=C(C(=O)[O-])N2C(=O)C(NC(=O)/C(=N\OC(C)(C)C(=O)O)c3nsc(N)n3)C2SC1 (stereo partly shown) [Example 19]
